The source of these data is patent publication US9555039B2, “Piperidine derivatives and compositions for the inhibition of nicotinamide phosphoribosyltransferase (NAMPT)” (Forma TM, LLC., priority 2011, dated 2017).

By IC50 is commonly meant the concentration needed to halve the response being measured.

The subject of assay [1] is A2780 cells. As to the kind of experiment: In-vitro cell proliferation assay (SRB, 72 hours). The format is cell-based. The following applies: Homo sapiens, sulforhodamine B (SRB) assay. The method in brief: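 Background from media-only plate subtracted; inhibition relative to DMSO-treated cells, value derived by interpolation between two concentrations.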
Background: The SRB assay estimates cell density from bound dye.

Assay [2] addresses T1, Recombinant His-tagged NAMPT (Homo sapiens, UniProt P43490).
T1 construct: His; host or cells: E. coli
The assay can be described thus: Biochemical inhibition assay: NAMPT enzymatic reaction, NMN quantified by mass spectrometry. The following applies: 33 nM NAMPT, 1 μM NAM, 100 μM PRPP, 2.5 mM ATP, 30 minutes at room temperature; read-out: Biochem IC50. The method in brief: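 Reaction 30 min at room temperature with 1 μM NAM, 100 μM PRPP, 2.5 mM ATP (final), quenched with formic acid. NMN quantified by RapidFire electrospray MS, normalized to L-cystathionine; IC50 from percent inhibition versus DMSO.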

T1 sequence (P43490 whole entry): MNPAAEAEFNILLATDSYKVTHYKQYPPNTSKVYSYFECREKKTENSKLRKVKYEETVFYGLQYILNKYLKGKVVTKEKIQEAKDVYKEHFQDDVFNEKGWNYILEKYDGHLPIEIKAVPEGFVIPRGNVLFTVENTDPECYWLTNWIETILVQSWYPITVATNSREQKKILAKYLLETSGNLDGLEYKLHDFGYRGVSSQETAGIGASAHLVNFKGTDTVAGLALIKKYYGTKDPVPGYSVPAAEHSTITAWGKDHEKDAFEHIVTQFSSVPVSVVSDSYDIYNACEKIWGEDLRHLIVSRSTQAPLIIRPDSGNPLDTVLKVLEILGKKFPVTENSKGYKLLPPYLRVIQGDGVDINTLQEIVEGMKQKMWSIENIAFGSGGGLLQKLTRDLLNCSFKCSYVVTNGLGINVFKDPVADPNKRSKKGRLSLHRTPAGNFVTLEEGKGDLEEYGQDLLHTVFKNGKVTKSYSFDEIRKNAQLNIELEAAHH

For the compound `O=C(NCCCC1CCN(C(=O)c2ccccc2)CC1)c1cc2cnccc2[nH]1` [N-(3-(1-benzoylpiperidin-4-yl)propyl)-1H-pyrrolo[3,2-c]pyridine-2-carboxamide], the half-inhibitory concentration (IC50) turned out to be 432 nM in assay [1] and 126 nM in assay [2].

Consider `O=C(NCCCCC1CCN(C(=O)c2ccc(Cl)c(Cl)c2)CC1)c1ccc2nccn2c1` [N-(4-{1-[(3,4-dichlorophenyl)carbonyl]piperidin-4-yl}butyl)imidazo[1,2-a]pyridine-6-carboxamide], for which the IC50 in assay [1] was 100 to 1000 nM; in assay [2] it was 49 nM.

Turning to `Cn1cc(CC(=O)N2CCC(CCCCNC(=O)c3cc4cnccc4[nH]3)CC2)c2ccccc21` [N-(4-{1-[2-(1-methyl-1H-indol-3-yl)acetyl]piperidin-4-yl}butyl)-1H-pyrrolo[3,2-c]pyridine-2-carboxamide], the IC50 in assay [1] turned out to be 11.2 nM; in assay [2], 9.1 nM.

Consider `O=C(NCCCCC1CCN(C(=O)c2ccc(F)cc2)CC1)c1cc2ccncc2s1` [N-(4-{1-[(4-fluorophenyl)carbonyl]piperidin-4-yl}butyl)thieno[2,3-c]pyridine-2-carboxamide], for which the 50% inhibitory concentration (IC50) was 100 to 1000 nM in assay [1] and 51.8 nM in assay [2].

For the compound `O=C(NCCC1CCN(S(=O)(=O)c2ccccc2)CC1)c1cc2cnccc2[nH]1` [N-{2-[1-(benzenesulfonyl)piperidin-4-yl]ethyl}-1H-pyrrolo[3,2-c]pyridine-2-carboxamide], the IC50 came out at 1030 nM in assay [1] and 50.9 nM in assay [2].

Turning to `CC(C)c1ncoc1C(=O)N1CCC(CCCCNC(=O)c2cc3cnccc3[nH]2)CC1` [N-[4-(1-{[4-(propan-2-yl)-1,3-oxazol-5-yl]carbonyl}piperidin-4-yl)butyl]-1H-pyrrolo[3,2-c]pyridine-2-carboxamide], the IC50 came out at 5.3 nM in assay [1] and 30.4 nM in assay [2].

With `O=C(NCCCCC1CCN(C(=O)c2ccc(C(F)(F)F)cc2)CC1)c1cc2cnccc2[nH]1` [N-[4-(1-{[4-(trifluoromethyl)phenyl]carbonyl}piperidin-4-yl)butyl]-1H-pyrrolo[3,2-c]pyridine-2-carboxamide], the IC50 in assay [1] was determined as 38.1 nM; in assay [2], 164 nM.

Regarding `Cc1ncsc1C(=O)N1CCC(CCCCNC(=O)c2ccc3nccn3c2)CC1` [N-(4-{1-[(4-methyl-1,3-thiazol-5-yl)carbonyl]piperidin-4-yl}butyl)imidazo[1,2-a]pyridine-6-carboxamide], the values for the IC50 in assay [1] and in assay [2] were 0.8 nM and 2.9 nM, respectively.

For `Cn1c(C(=O)N2CCC(CCCCNC(=O)c3cc4ccncc4s3)CC2)cc2ccccc21` [N-(4-{1-[(1-methyl-1H-indol-2-yl)carbonyl]piperidin-4-yl}butyl)thieno[2,3-c]pyridine-2-carboxamide], the IC50 was 100 to 1000 nM in assay [1] and 65 nM in assay [2].

For `O=C(NCCCCC1CCN(C(=O)c2csc(-c3ccccc3)n2)CC1)c1cc2cnccc2[nH]1` [N-(4-{1-[(2-phenyl-1,3-thiazol-4-yl)carbonyl]piperidin-4-yl}butyl)-1H-pyrrolo[3,2-c]pyridine-2-carboxamide], the IC50 came out at 72.5 nM in assay [1] and 110 nM in assay [2].

For `COc1ccc(C(=O)N2CCC(CCCCNC(=O)c3cc4cnccc4[nH]3)CC2)cc1F` [N-(4-{1-[(3-fluoro-4-methoxyphenyl)carbonyl]piperidin-4-yl}butyl)-1H-pyrrolo[3,2-c]pyridine-2-carboxamide], the IC50 in assay [1] came to 21 nM; in assay [2], 63.1 nM.

With `O=C(NCCCCC1CCN(C(=O)c2ccc(OC(F)F)cc2)CC1)c1cc2cnccc2[nH]1` [N-[4-(1-{[4-(difluoromethoxy)phenyl]carbonyl}piperidin-4-yl)butyl]-1H-pyrrolo[3,2-c]pyridine-2-carboxamide], the IC50 was 31.4 nM in assay [1] and 183 nM in assay [2].

Take `O=C(NCCCCC1CCN(C(=O)c2ccc3cc[nH]c3c2)CC1)c1ccc2nccn2c1` [N-(4-{1-[(1H-indol-6-yl)carbonyl]piperidin-4-yl}butyl)imidazo[1,2-a]pyridine-6-carboxamide]: the IC50 in assay [1] came out at 14.9 nM; in assay [2] it was 29.8 nM.

As to `O=C(NCCCCC1CCN(C(=O)c2cccc(F)c2)CC1)c1cc2ccncc2s1` [N-(4-{1-[(3-fluorophenyl)carbonyl]piperidin-4-yl}butyl)thieno[2,3-c]pyridine-2-carboxamide], the IC50 is 7.4 nM in assay [1] and 7.7 nM in assay [2].

Consider `CC(C)c1ccc(C(=O)N2CCC(CCCCNC(=O)c3ccc4nccn4c3)CC2)nc1` [N-[4-(1-{[5-(propan-2-yl)pyridin-2-yl]carbonyl}piperidin-4-yl)butyl]imidazo[1,2-a]pyridine-6-carboxamide], for which the results for the IC50 in assay [1] and in assay [2] were 52.9 nM and 56.7 nM, respectively.

As for `COc1ccccc1C(=O)N1CCC(CCCCNC(=O)c2cc3cnccc3[nH]2)CC1` [N-(4-{1-[(2-methoxyphenyl)carbonyl]piperidin-4-yl}butyl)-1H-pyrrolo[3,2-c]pyridine-2-carboxamide], the IC50 was found to be 1.9 nM in assay [1] and 14.4 nM in assay [2].

For the compound `O=C(NCCCCC1CCN(C(=O)c2cccc(F)c2F)CC1)c1ccc2nccn2c1` [N-(4-{1-[(2,3-difluorophenyl)carbonyl]piperidin-4-yl}butyl)imidazo[1,2-a]pyridine-6-carboxamide], the IC50 in assay [1] stood at 10.1 nM; in assay [2], 7.9 nM.

With `O=C(NCCCCC1CCN(C(=O)c2ccc(N3CCOCC3)nc2)CC1)c1cc2cnccc2[nH]1` [N-[4-(1-{[6-(morpholin-4-yl)pyridin-3-yl]carbonyl}piperidin-4-yl)butyl]-1H-pyrrolo[3,2-c]pyridine-2-carboxamide], the IC50 in assay [1] came to 3.4 nM; in assay [2] it was 64.7 nM.

For `O=C(NCCc1ccc(-c2ccccc2)cc1)c1cc2cnccc2[nH]1` [N-[2-(4-phenylphenyl)ethyl]-1H-pyrrolo[3,2-c]pyridine-2-carboxamide], the IC50 in assay [1] came out at 3980 nM; in assay [2] it was 126 nM.

Regarding `O=C(NCCCCC1CCN(C(=O)c2cc3cc(F)ccc3[nH]2)CC1)c1cc2ccncc2s1` [N-(4-{1-[(5-fluoro-1H-indol-2-yl)carbonyl]piperidin-4-yl}butyl)thieno[2,3-c]pyridine-2-carboxamide], the results for the half-inhibitory concentration (IC50) in assay [1] and in assay [2] were 1000 to 10000 nM and 30.4 nM, respectively.

`CCOc1ncccc1C(=O)N1CCC(CCCCNC(=O)c2cc3cnccc3[nH]2)CC1` [N-(4-{1-[(2-ethoxypyridin-3-yl)carbonyl]piperidin-4-yl}butyl)-1H-pyrrolo[3,2-c]pyridine-2-carboxamide]: the IC50 in assay [1] stood at 0.6 nM; in assay [2], 20.6 nM.

As to `O=C(NCCCCC1CCN(C(=O)C2CCCCC2)CC1)c1cc2cnccc2[nH]1` [N-[4-(1-cyclohexanecarbonylpiperidin-4-yl)butyl]-1H-pyrrolo[3,2-c]pyridine-2-carboxamide], the IC50 stood at 15.5 nM in assay [1] and 180 nM in assay [2].

`O=C(NCCCCC1CCN(C(=O)c2cc3ccccc3[nH]2)CC1)c1cc2cnccc2[nH]1` [N-(4-{1-[(1H-indol-2-yl)carbonyl]piperidin-4-yl}butyl)-1H-pyrrolo[3,2-c]pyridine-2-carboxamide]: the IC50 in assay [1] stood at 60.3 nM; in assay [2] it was 125 nM.

Take `O=C(NCCCCC1CCN(C(=O)c2ccncc2)CC1)c1cc2cnccc2[nH]1` [N-(4-{1-[(pyridin-4-yl)carbonyl]piperidin-4-yl}butyl)-1H-pyrrolo[3,2-c]pyridine-2-carboxamide]: the IC50 in assay [1] is 4.4 nM; in assay [2], 9.7 nM.
